According to PubChem BioAssay (NCI):
Several values for one entry are separate records, joined by “and”; a condition that tells them apart may be missing. Identical values can stand only once.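 Cultured in 96-well plates, cells were exposed to test compound for 48 hours across five concentrations. GI50: concentration for 50% inhibition of growth. Definition used: TGI = concentration required for complete inhibition of growth.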

Tests used:
Assay in all cases: growth of human tumour cells (NCI), 48 h
HCT-15 colon = tested on: HCT-15 colon
HOP-62 NSCLC = tested on: HOP-62 NSCLC
K-562 leukemia = tested on: K-562 leukemia
OVCAR-3 ovarian = tested on: OVCAR-3 ovarian
OVCAR-8 ovarian = tested on: OVCAR-8 ovarian
SF-539 CNS = tested on: SF-539 CNS
TK-10 renal = tested on: TK-10 renal
U251 CNS = tested on: U251 CNS
HOP-92 NSCLC = tested on: HOP-92 NSCLC
SNB-75 CNS = tested on: SNB-75 CNS

Compound	GI50 (HCT-15 colon) [µM]	TGI (HCT-15 colon) [µM]	GI50 (HOP-62 NSCLC) [µM]	TGI (HOP-62 NSCLC) [µM]	GI50 (K-562 leukemia) [µM]	TGI (K-562 leukemia) [µM]	GI50 (OVCAR-3 ovarian)	TGI (OVCAR-3 ovarian)	GI50 (OVCAR-8 ovarian) [µM]	TGI (OVCAR-8 ovarian) [µM]	GI50 (SF-539 CNS) [µM]	TGI (SF-539 CNS) [µM]	GI50 (TK-10 renal) [µM]	TGI (TK-10 renal) [µM]	GI50 (U251 CNS) [µM]	TGI (U251 CNS) [µM]	GI50 (HOP-92 NSCLC) [µM]	TGI (HOP-92 NSCLC) [µM]	TGI (SNB-75 CNS) [µM]	GI50 (SNB-75 CNS) [µM]
C=C1C(=O)O[C@H]2C[C@@H]1CCC1(C)OC1CC/C(C)=C/CC[C@H]2C (some centres not stated)	17.3	31.1	18.9	34.5	21.6	41.2	19.1 µM	35.1 µM	26.8	72.2	28.8	50.6	17.6	31.8	17.7	31.5				
O=C1C=CC(=O)c2c1ncc1c2nc2sccn21	17.9	39.5	21.2	47.4	30.1	> 100	20.3 µM	63.4 µM	30.5	> 100	12.4	42.4	18.3	33.5	18.3	43.9	14.9	31.1		
NC(N)=N/N=C/c1c(-c2ccc(Cl)c([N+](=O)[O-])c2)nc2ccccn12	9.18	56.1	1.56	2.9			1.59 µM	3.11 µM			0.122	1.53								
CC(=O)O[C@H]1CC[C@@]2(C)C(=CC[C@@H]3C2CC[C@]2(C)Nc4[nH]ncc4CC32)C1 (some centres not stated)		32.8		> 100		52.8		36.5 µM		> 100		40.4		> 100		30.7			> 100	
COc1ccccc1NC(=O)CC(=O)NNCC(=O)Nc1nnc(-c2ccccc2)o1		> 100		> 100		> 100		> 100 µM		> 100		> 100		> 100		> 100			> 100	
CN1C(=O)C(c2c[nH]c3ccccc23)=C(c2c(-c3c[nH]c4ccccc34)[nH]c3ccccc23)C1=O	3.24	12.3	2.1	11.9	3.07	> 100	0.92 µM	2.99 µM	3.2	11	1.81	3.67	1.66	4.85	3	9.61			18	1.74
O=[N+]([O-])c1ccc(N=Nc2c(O)[nH]c3ccccc23)cc1		> 100		34		> 84.6		35.2 µM		48.3		9.36		> 51.2		> 100			42.6	
COc1ccc(-c2csc3c2-n2cccc2C3=O)cc1O	< 0.0132	> 100	0.0578	> 100	< 0.01	> 100	< 0.0152 µM	0.0434 µM	0.0281	> 100	0.0226	> 100	17.6	98.7	0.0332	> 47.4			> 100	0.0281
O=C(O)c1ccc(C2C3C=CC(C3)C2[N+](=O)[O-])cc1 (configuration not stated)		> 100		> 100		> 100		> 100 µM		> 100		> 100		> 100		> 100			> 100	
Oc1ccc(CN(Cc2ccc(C(F)(F)F)cc2)Cc2ccc(O)c3ncccc23)c2cccnc12	0.024	> 100	0.0319	> 34.6	0.0224	> 100	0.0319 µM	60.4 µM	< 0.0142	> 100	0.0465	> 64.1	0.0165	> 100	< 0.01	> 100			> 100	0.0172
Cn1c(=O)oc2cc(C3CCC(=O)N3Cc3ccc(Cl)cc3)ccc21 (configuration not stated)		> 100		> 100		> 100				> 100		> 100		> 100		> 100			> 100	
COc1cc(OC)cc(-c2cncn2-c2ccc(-c3nc4cc(OC)cc(OC)c4s3)cc2)c1			6.65	34.5	3.22	> 100	2.87 µM	> 100 µM	14.5	> 100	5.76	> 100	16.8	> 100	4.76	> 100			17.9	3.28
CCOC(=O)c1cnc2cc3cccccc3n2c1=O		> 100		> 100		> 100		> 100 µM		> 100		> 100		> 100		> 100			> 100	
CC1(C)N[P+]2(Nc3ccccc3O2)OC1=O (configuration not stated)		> 100		> 100		> 100		> 100 µM		> 100		> 100		> 100		> 100			> 100	
CCCCCCCCCCCCCCCCn1cc[n+](Cc2ccccc2)c1C							0.178 µM and 0.175 µM	0.947 µM and 0.49 µM			1.67	4.36	0.86	2.2					0.899	0.262
